Measured values from patent US20150368248A1, “2-SUBSTITUTED-6-BIARYLMETHYLAMINO-9-CYCLOPENTYL-9H-PURINE DERIVATIVES, USE THEREOF AS MEDICAMENTS, AND PHARMACEUTICAL COMPOSITIONS” (UNIVERZITA PALACKEHO V OLOMOUCI, priority 2013, published 2015).

What was measured:
[1] = tested on: p53-regulated transcription in Arn8 cells; experiment: p53-dependent transcriptional activity, β-galactosidase reporter; format: cell-based; details: 24 h incubation
Method in brief: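 Arn8 melanoma cells stably carrying the p53-responsive pRGCAfoslacZ reporter, exposed to compounds for 24 h. Cells permeabilised with 0.3% Triton X-100 for 15 min, then given 80 μM 4-methylumbelliferyl-β-D-galactopyranoside. β-Galactosidase product fluorescence read after 1 h at 355/460 nm.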

[2] = tested on: caspase-3/7 activity in Hep3B cell line; experiment: One-step cellular caspase-3/7 activity assay; format: cell-based, human; details: 24 hours, 0 nM = 1.00
Method in brief: (§1)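 Hep3B or PLC/PRF/5 cells, plated overnight, were exposed to compounds for 24 h. Lysis buffer containing 150 μM Ac-DEVD-AMC substrate was added, and plates were incubated at 37° C. Caspase-3/7 activity was read as AMC fluorescence (ex 346/em 442 nm) after 6 h.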

[3] = tested on: caspase-3/7 activity in PLC/PRF/5 cell line; experiment: One-step cellular caspase-3/7 activity assay; format: cell-based, human; details: 24 hours incubation, relative to 0 nM = 1.00
Method in brief: as §1

CDK1/cyclin B = molecular target: T1, CDK1/cyclin B (Homo sapiens, UniProt P06493); experiment: Kinase inhibition assay, recombinant kinase, [γ-33P]ATP; format: biochemical; details: read-out: Kinase inhibition IC50, CDK1
T1 construct: made in house; host or cells: Sf9 insect cells (baculovirus)
Protocol: CDK2/Cyclin E kinase was produced in Sf9 insect cells via baculoviral infection and purified on a NiNTA column (Qiagen). CDK5/p35, CDK7Cyclin H/MAT1 and CDK9/Cyclin T1 was purchased from ProQinase GmbH. […] The reactions were stopped by adding 5 μL of 3% aq H3PO4. Aliquots were spotted onto P-81 phosphocellulose (Whatman), washed 3× with 0.5% aq H3PO4 and finally air-dried.
CDK1/cyclin B and CDK2/cyclin E kinases were produced in Sf9 insect cells via baculoviral infection, while CDK5/p35, CDK7/cyclin H/MAT1, and CDK9/cyclin T1 were purchased from ProQinase (Freiburg, Germany) and assayed as described previously (35). The kinase reactions were assayed with 1 mg/ml histone H1 (for CDK2 and CDK5) or (YSPTSPS)2KK peptide (for CDK7 and CDK9) in the presence of 15/0.15/1.5/1.5 […] ATP (for CDK2/CDK5/CDK7CDK9), […] [γ-^33P]ATP and of the test compound in a final volume of […]. The reaction buffer contained 60 mM HEPES-NaOH, pH 7.5, 3 mM MgCl2, 3 mM MnCl2, 3 mM Na-orthovanadate, 1.2 mM DTT, 2.5 mg/50 ml PEG20.000. The reactions were stopped by adding […] of 3% H3PO4. Aliquots were spotted onto P-81 phosphocellulose (Whatman, GE Healthcare Biosciences, Pittsburgh, USA), washed 3 times with 0.5% H3PO4 and finally air-dried. Kinase inhibition was quantified using a FLA-7000 digital image analyzer (Fujifilm, Tokyo, Japan).

Hep3B = experiment: MTT cytotoxicity assay (Example 30); format: cell-based, human; details: Homo sapiens, Hep3B, 72 h; MTT, three days after drug addition; read-out: Inhibitory concentration IC50, Hep3B

T1 sequence (P06493 whole entry, species assumed): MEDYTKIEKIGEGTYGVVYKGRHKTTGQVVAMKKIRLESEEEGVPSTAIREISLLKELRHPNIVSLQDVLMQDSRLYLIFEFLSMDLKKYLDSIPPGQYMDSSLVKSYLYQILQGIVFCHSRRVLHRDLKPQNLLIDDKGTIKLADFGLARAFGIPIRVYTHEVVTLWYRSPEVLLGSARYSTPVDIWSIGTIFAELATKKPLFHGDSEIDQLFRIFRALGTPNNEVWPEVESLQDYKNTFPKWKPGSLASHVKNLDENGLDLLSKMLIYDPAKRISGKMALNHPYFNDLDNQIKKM
T1 sequence (P14635 whole entry partner, species assumed): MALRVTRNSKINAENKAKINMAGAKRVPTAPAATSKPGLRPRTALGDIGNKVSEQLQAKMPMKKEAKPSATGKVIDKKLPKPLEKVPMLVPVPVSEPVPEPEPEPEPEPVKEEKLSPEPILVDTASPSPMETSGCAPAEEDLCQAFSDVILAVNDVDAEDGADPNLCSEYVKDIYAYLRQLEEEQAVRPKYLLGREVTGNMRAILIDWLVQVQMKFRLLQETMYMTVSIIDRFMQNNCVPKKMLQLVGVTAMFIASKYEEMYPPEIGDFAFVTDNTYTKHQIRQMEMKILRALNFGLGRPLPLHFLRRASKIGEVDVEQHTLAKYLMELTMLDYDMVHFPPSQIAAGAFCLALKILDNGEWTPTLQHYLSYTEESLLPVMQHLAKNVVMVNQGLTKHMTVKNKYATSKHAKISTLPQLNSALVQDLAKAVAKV

Structure (SMILES) | Concentration of maximum activation [1] | Relative caspase-3/7 activity in Hep3B cell line ([2]; 200 nM) | Relative caspase-3/7 activity in Hep3B cell line ([2]; 400 nM) | Relative caspase-3/7 activity in Hep3B cell line ([2]; 800 nM) | Relative caspase-3/7 activity in Hep3B cell line ([2]; 1600 nM) | Relative caspase-3/7 activity in PLC/PRF/5 cell line ([3]; compound concentration 160 nM) | Relative caspase-3/7 activity in PLC/PRF/5 cell line ([3]; compound concentration 320 nM) | Relative caspase-3/7 activity in PLC/PRF/5 cell line ([3]; compound concentration 640 nM) | Relative caspase-3/7 activity in PLC/PRF/5 cell line ([3]; compound concentration 1280 nM) | melting point | IC50 (CDK1/cyclin B) | IC50 (Hep3B) | Relative caspase-3/7 activity in PLC/PRF/5 cell line ([3]; compound concentration 40 nM) | Relative caspase-3/7 activity in PLC/PRF/5 cell line ([3]; compound concentration 80 nM)
NC1CCC(Nc2nc(NCc3ccc(-c4ccco4)cc3)c3ncn(C4CCCC4)c3n2)CC1 (stereo not drawn) [BP4, N^2-(4-amino-cyclohexyl)-9-cyclopentyl-N^6-(4-furan-2-yl-benzyl)-9H-purine-2,6-diamine] | 700 nM | 1.12 | 1.44 | 5.58 | 9.25 | 0.67 | 0.61 | 0.33 | 0.55 | 157 to 159 °C | 148 nM | 708 nM |  | 
NC1CCC(Nc2nc(NCc3ccc(-c4ccsc4)nc3)c3ncn(C4CCCC4)c3n2)CC1 (stereo not drawn) [BP35, N^2-(4-amino-cyclohexyl)-9-cyclopentyl-N^6-(6-thiophen-3-yl-pyridin-3-ylmethyl)-9H-purine-2,6-diamine] | 230 nM | 1.01 | 5.59 | 6.07 | 9.10 | 2.97 | >5.00 | >5.00 | >5.00 | 139 to 140 °C | 169 nM | 207 nM | 1.10 | 2.37
Nc1ccccc1-c1ccc(CNc2nc(NC3CCC(N)CC3)nc3c2ncn3C2CCCC2)cn1 (stereo not drawn) [BP22, N^2-(4-amino-cyclohexyl)-9-cyclopentyl-N^6-[6-(2-amino-phenyl)-pyridin-3-ylmethyl]-9H-purine-2,6-diamine] | 373 nM | 0.81 | 0.80 | 0.81 | 1.18 | 0.72 | 1.08 | 1.92 | 3.50 | 173 to 175 °C | 100 nM | 487 nM |  | 
NC1CCC(Nc2nc(NCc3ccc(-c4cccs4)cc3)c3ncn(C4CCCC4)c3n2)CC1 (stereo not drawn) [BP2, N^2-(4-amino-cyclohexyl)-9-cyclopentyl-N^6-(4-thiophen-2-yl-benzyl)-9H-purine-2,6-diamine] | 930 nM | 1.09 | 1.40 | 3.73 | 7.77 | 1.30 | 2.24 | >5.00 | >5.00 | 225 to 226 °C | 119 nM | 460 nM | 1.09 | 1.14
NC1CCC(Nc2nc(NCc3ccc(-c4ccsc4)cc3)c3ncn(C4CCCC4)c3n2)CC1 (stereo not drawn) [BP5, N^2-(4-amino-cyclohexyl)-9-cyclopentyl-N^6-(4-thiophen-3-yl-benzyl)-9H-purine-2,6-diamine] | 961 nM | 1.09 | 1.48 | 6.65 | 8.96 | 2.22 | 3.37 | >5.00 | >5.00 | 114 to 118 °C | 183 nM | 405 nM | 0.65 | 1.07
